Tested on: advanced systemic mastocytosis (AdvSM)
Experiment: Centrally adjudicated response by mIWG-MRT-ECNM criteria (ORR, best response, time to response, C-finding improvement)
Format: in vivo, human
Source text: The primary endpoints were MTD, RP2D and assessment of safety. Secondary endpoints included the ORR based on measurable C-finding responses per mIWG-MRT-ECNM criteria, which require 12-week confirmation of response. Responses in C-findings were centrally adjudicated by a Response Adjudication Committee (RAC) comprising a subset of study investigators (see below for further details and a list of RAC members). ORR included: CR or CRh (including complete resolution of all C-findings, elimination of marrow mast cell aggregates and serum tryptase <20 ng ml^−1); PR (resolution of ≥1 C-finding and ≥50% reduction in marrow mast cells and serum tryptase); and clinical improvement (resolution of ≥1 C-finding).
The safety population included all enrolled patients and was used to report AEs and PROs (in those who completed the questionnaire). The dose-determining population included all patients in a cohort in part 1 who received ≥21 prescribed avapritinib doses in C1 and completed follow-up through C1, or experienced DLT. The determination of the MTD and RP2D were based on the dose-determining population. […] The AdvSM safety population was also used to report AEs and OS. […] The response-evaluable population was used to report adjudicated response rates and PFS. The PK population comprised all patients with sufficient plasma concentration–time data to reliably estimate the PK parameters of avapritinib.
ORR was defined as the proportion of patients with a confirmed best response of CR, CRh, PR or clinical improvement by mIWG-MRT-ECNM consensus criteria. Time to CR/CRh/PR was defined as the time from the start of treatment to the time a CR/CRh/PR by mIWG-MRT-ECNM was first met. DOR was defined as the time from first documented response to the date of first documented progressive disease/loss of response or death due to any cause, whichever occurred first. OS was defined as the time from the start of treatment to the date of death. PFS was defined as the time from the start of treatment to the date of first documented progressive disease or death due to any cause, whichever occurred first. Progressive disease was defined per mIWG-MRT-ECNM criteria as worsening of ≥1 baseline C-finding confirmed for at least 4 weeks, or progression to acute myeloid leukemia.
Primary ORR analysis was based on RAC-adjudicated responses in the response-evaluable population. ORR was estimated using frequency, percentage and two-sided 95% CIs based on the exact binomial distribution (Clopper–Pearson). Statistical testing on binomial proportion against a null of 28% was performed using one-sided α = 0.025. Wald test P value was presented. CR + CRh + PR rate was summarized similarly as ORR. Statistical testing on binomial proportion against a null of 17% was performed using one-sided α = 0.025.

[1] = 53 response-evaluable patients, mIWG-MRT-ECNM
[2] = Prior midostaurin exposure (n = 17)
[3] = of 2 patients with C-finding at baseline, response-evaluable population (n = 53)
[4] = of 18 patients with C-finding at baseline, response-evaluable population (n = 53)
[5] = response-evaluable population (n = 53)

Cn1cc(-c2cc3c(N4CCN(c5ncc([C@@](C)(N)c6ccc(F)cc6)cn5)CC4)ncnn3c2)cn1 [avapritinib]
Clinical improvement rate (53 response-evaluable patients): 6%
Partial remission (PR) rate (53 response-evaluable patients): 34%
CR or CRh rate [1]: 36%
Overall response rate (ORR; CR/CRh/PR/CI) [1]: 75%
Best response CI (clinical improvement) (ASM (n = 3)): 0 n (%)
Best response CR (ASM (n = 3)): 0 n (%)
Best response CR or CRh (ASM (n = 3)): 2 (67) n (%)
Best response CRh (ASM (n = 3)): 2 (67) n (%)
Best response NE (not evaluable) (ASM (n = 3)): 0 n (%)
Best response PD (ASM (n = 3)): 0 n (%)
Best response PR (ASM (n = 3)): 1 (33) n (%)
Best response SD (ASM (n = 3)): 0 n (%)
ORR (CR + CRh + PR + CI) (ASM (n = 3)): 3 (100) n (%)
Best response CI (clinical improvement) (All AdvSM (n = 53)): 3 (6) n (%)
Best response CR (All AdvSM (n = 53)): 8 (15) n (%)
Best response CR or CRh (All AdvSM (n = 53)): 19 (36) n (%)
Best response CRh (All AdvSM (n = 53)): 11 (21) n (%)
Best response NE (not evaluable) (All AdvSM (n = 53)): 1 (2) n (%)
Best response PD (All AdvSM (n = 53)): 0 n (%)
Best response PR (All AdvSM (n = 53)): 18 (34) n (%)
Best response SD (All AdvSM (n = 53)): 12 (23) n (%)
ORR (CR + CRh + PR + CI) (All AdvSM (n = 53)): 40 (75) n (%)
Best response CI (clinical improvement) (Any prior therapy (n = 32)): 2 (6) n (%)
Best response CR (Any prior therapy (n = 32)): 4 (13) n (%)
Best response CR or CRh (Any prior therapy (n = 32)): 9 (28) n (%)
Best response CRh (Any prior therapy (n = 32)): 5 (16) n (%)
Best response NE (not evaluable) (Any prior therapy (n = 32)): 1 (3) n (%)
Best response PD (Any prior therapy (n = 32)): 0 n (%)
Best response PR (Any prior therapy (n = 32)): 11 (34) n (%)
Best response SD (Any prior therapy (n = 32)): 9 (28) n (%)
ORR (CR + CRh + PR + CI) (Any prior therapy (n = 32)): 22 (69) n (%)
Best response CI (clinical improvement) (MCL (n = 13)): 2 (15) n (%)
Best response CR (MCL (n = 13)): 3 (23) n (%)
Best response CR or CRh (MCL (n = 13)): 3 (23) n (%)
Best response CRh (MCL (n = 13)): 0 n (%)
Best response NE (not evaluable) (MCL (n = 13)): 0 n (%)
Best response PD (MCL (n = 13)): 0 n (%)
Best response PR (MCL (n = 13)): 4 (31) n (%)
Best response SD (MCL (n = 13)): 4 (31) n (%)
ORR (CR + CRh + PR + CI) (MCL (n = 13)): 9 (69) n (%)
Best response CI (clinical improvement) (Midostaurin naïve (n = 36)): 2 (6) n (%)
Best response CR (Midostaurin naïve (n = 36)): 6 (17) n (%)
Best response CR or CRh (Midostaurin naïve (n = 36)): 16 (44) n (%)
Best response CRh (Midostaurin naïve (n = 36)): 10 (28) n (%)
Best response NE (not evaluable) (Midostaurin naïve (n = 36)): 0 n (%)
Best response PD (Midostaurin naïve (n = 36)): 0 n (%)
Best response PR (Midostaurin naïve (n = 36)): 12 (33) n (%)
Best response SD (Midostaurin naïve (n = 36)): 6 (17) n (%)
ORR (CR + CRh + PR + CI) (Midostaurin naïve (n = 36)): 30 (83) n (%)
Best response CI (clinical improvement) (No prior therapy (n = 21)): 1 (5) n (%)
Best response CR (No prior therapy (n = 21)): 4 (19) n (%)
Best response CR or CRh (No prior therapy (n = 21)): 10 (48) n (%)
Best response CRh (No prior therapy (n = 21)): 6 (29) n (%)
Best response NE (not evaluable) (No prior therapy (n = 21)): 0 n (%)
Best response PD (No prior therapy (n = 21)): 0 n (%)
Best response PR (No prior therapy (n = 21)): 7 (33) n (%)
Best response SD (No prior therapy (n = 21)): 3 (14) n (%)
ORR (CR + CRh + PR + CI) (No prior therapy (n = 21)): 18 (86) n (%)
Best response CI (clinical improvement) [2]: 1 (6) n (%)
Best response CR [2]: 2 (12) n (%)
Best response CR or CRh [2]: 3 (18) n (%)
Best response CRh [2]: 1 (6) n (%)
Best response NE (not evaluable) [2]: 1 (6) n (%)
Best response PD [2]: 0 n (%)
Best response PR [2]: 6 (35) n (%)
Best response SD [2]: 6 (35) n (%)
ORR (CR + CRh + PR + CI) [2]: 10 (59) n (%)
Best response CI (clinical improvement) (SM-AHN (n = 37)): 1 (3) n (%)
Best response CR (SM-AHN (n = 37)): 5 (14) n (%)
Best response CR or CRh (SM-AHN (n = 37)): 14 (38) n (%)
Best response CRh (SM-AHN (n = 37)): 9 (24) n (%)
Best response NE (not evaluable) (SM-AHN (n = 37)): 1 (3) n (%)
Best response PD (SM-AHN (n = 37)): 0 n (%)
Best response PR (SM-AHN (n = 37)): 13 (35) n (%)
Best response SD (SM-AHN (n = 37)): 8 (22) n (%)
ORR (CR + CRh + PR + CI) (SM-AHN (n = 37)): 28 (76) n (%)
Median time to achieve CR/CRh (all starting doses): 9 months
Median time to achieve PR or better (CR/CRh/PR) (all starting doses, range, 2–27 months): 2 months
CR rate (midostaurin-naïve patients (6/36)): 17%
CRh rate (midostaurin-naïve patients (10/36)): 28%
CR/CRh rate (midostaurin-naïve patients (16/36)): 44%
ORR (midostaurin-naïve patients (30/36)): 83%
Patients with clinical improvement in C-finding: thrombocytopenia, transfusion dependent (of 1 patient with C-finding at baseline, response-evaluable population (n = 53)): 0 (0) n (%)
Patients with clinical improvement in C-finding: anemia, transfusion dependent [3]: 1 (50) n (%)
Patients with clinical improvement in C-finding: pleural effusions [3]: 2 (100) n (%)
Patients with clinical improvement in C-finding: neutropenia (of 3 patients with C-finding at baseline, response-evaluable population (n = 53)): 0 (0) n (%)
Patients with clinical improvement in C-finding: direct bilirubin >1.5 × ULN (of 6 patients with C-finding at baseline, response-evaluable population (n = 53)): 1 (17) n (%)
Patients with clinical improvement in C-finding: hypoalbuminemia (of 7 patients with C-finding at baseline, response-evaluable population (n = 53)): 4 (57) n (%)
Patients with clinical improvement in C-finding: ascites (of 10 patients with C-finding at baseline, response-evaluable population (n = 53)): 4 (40) n (%)
Patients with clinical improvement in C-finding: anemia, transfusion independent (of 15 patients with C-finding at baseline, response-evaluable population (n = 53)): 3 (20) n (%)
Patients with clinical improvement in C-finding: ALP >2.5 × ULN [4]: 12 (67) n (%)
Patients with clinical improvement in C-finding: thrombocytopenia, transfusion independent [4]: 4 (22) n (%)
Patients with clinical improvement in C-finding: splenomegaly ≥5 cm (of 28 patients with C-finding at baseline, response-evaluable population (n = 53)): 24 (86) n (%)
ORR (patients with co-mutations in S/A/R genes): 74%
ORR (patients with prior midostaurin exposure (10/17)): 59%
ORR (patients without S/A/R co-mutations): 77%
CRh rate (prior midostaurin exposure (1/17)): 6%
CR rate (prior midostaurin exposure (2/17)): 12%
CR/CRh rate (prior midostaurin exposure (3/17)): 18%
Median time to clinical improvement: ALP >2.5 × ULN [5]: 2.9 months
Median time to clinical improvement: anemia, transfusion dependent [5]: 0.3 months
Median time to clinical improvement: anemia, transfusion independent [5]: 3.7 months
Median time to clinical improvement: ascites [5]: 7.4 months
Median time to clinical improvement: direct bilirubin >1.5 × ULN [5]: 8.3 months
Median time to clinical improvement: hypoalbuminemia [5]: 3.3 months
Median time to clinical improvement: pleural effusions [5]: 1.9 months
Median time to clinical improvement: splenomegaly ≥5 cm [5]: 1.9 months
Median time to clinical improvement: thrombocytopenia, transfusion independent [5]: 3.1 months
Median time to PR or better (CR/CRh/PR) (starting doses of 200, 300 or 400 mg (≥200 mg QD)): 2 months

Reference: publication PMC8674134, “Safety and efficacy of avapritinib in advanced systemic mastocytosis: the phase 1 EXPLORER trial” (Nature Medicine, 2021)
